Reference: PMC6627486, “Ipomoeassin F Binds Sec61α to Inhibit Protein Translocation” (Journal of the American Chemical Society, 2019)

Experiments:
MDA-MB-231 = assay: AlamarBlue cytotoxicity assay, MDA-MB-231; type: cell-based, human; conditions: Homo sapiens; MDA-MB-231, 72 h, AlamarBlue; read-out: Cytotoxicity (IC50)
Description: (§1) AlamarBlue Cytotoxicity Assay
(§2) MDA-MB-231, MCF-10A and HCT116. Viable cells were counted with a hemocytometer immediately before each experiment . Experiments were done in triplicate. First, 100 μL of MDA-MB-231 cells or MCF-10A cells at the density of 50,000 cells/mL was seeded in a 96-well plate (5,000 cells/well) and then incubated at 37 °C and 5% CO2 for 24 h. The compounds were dissolved in DMSO (dimethyl sulfoxide) to make drug stocks (10 mM). The stock solutions were diluted with the complete DMEM high glucose culture medium to make a series of gradient fresh working solutions right before each test. Subsequently, the cells were treated with 100 μL of the freshly made gradient working solution in a total volume of 200 μL/well for 72 h. After that, the media were discarded and 200 μL of the fresh complete medium containing 10% of AlamarBlue (resazurin) stock solution was added to each well. The plate was then incubated at 37 °C and 5% CO2 for another 3 h. Emission of each well at 620 nm was detected by a microplate reader (BioTek Synergy H1) at excitation 580 nm. […]
(§3) Microplate Reader. The percentage of viability compared to the negative control (DMSO-treated cells) […]
(§4) was determined. […]

MCF7 = assay: MTT cytotoxicity assay, MCF7; type: cell-based, human; conditions: Homo sapiens; MCF7, 72 h, MTT; read-out: Cytotoxicity (IC50)
Description: Two human breast cancer cell lines (MDA-MB-231 and MCF7) and one human breast non-tumorigenic epithelial cell line (MCF-10A) were maintained in a DMEM high glucose culture medium supplemented with 10% fetal bovine serum (FBS) and 2 mM L-glutamine. The cells were grown in a humidified atmosphere of 5% CO2 and 95% air at 37 °C . The culture medi um w as changed every 2–4 days depending on cell density. Cell cultures were passaged once a week using 0.125% trypsin-EDTA to detach the cells from culture flasks/dishes.
The human colorectal cancer cell line HCT116 was maintained in McCoy’s 5A (modified) medium supplemented with 10% fetal bovine serum (FBS). The human embryonic kidney (HEK293T and HEK293 FRT TRex) cell line was maintained in DMEM high glucose culture medium supplemented with 10% fetal bovine serum (FBS).
HepG2 cells were cultured in DMEM supplemented with 10% fetal bovine serum and 2 mM L-glutamine at 37°C under 5% CO2.
Viable cells were counted with a hemocytometer immediately before each experiment. Experiments were done in triplicate. First, 100 μL of MCF7 cells at the density of 50,000 cells/mL were seeded in a 96-well plate (5,000 cells/well), which was incubated at 37 °C and 5% CO2 atmosphere for 24 h. The compounds were dissolved in DMSO (dimethyl sulfoxide) to make drug stocks (10 mM). The stock solutions were diluted with the complete DMEM high glucose culture medium to make a series of gradient fresh working solutions right before each test. Subsequently, the cells were treated with 100 μL of the freshly made gradient working solution in a total volume of 200 μL/well for 72 h. After that, the media were discarded and 200 μL of the fresh complete medium containing 10% of MTT stock solution (5 mg/mL) was added to each well. The plate was then incubated at 37 °C and 5% CO2 for 3 h. Next, 180 μL of the medium was discarded from each well , and 180 μL of DMSO was added to each well to dissol ve formazan crystals. Absorbance of formazan was detected by a microplate reader (BioTek Synergy H1) at 570 nm with 650 nm as the reference wavelength. The percentage of viability compared to the negative control (DMSO-treated cells) was determined . GraphPad Prism 6 software was used to make a plot of %

[1] = AlamarBlue cytotoxicity assay, MCF-10A; type: cell-based, human; conditions: human, 72 h
Description: as §1, §2, §3, §4

HepG2 cells = assay: Pulse-chase analysis of protein secretion in HepG2 cells; type: cell-based, human; conditions: HepG2; 100 nM Ipom-F or 42 nM mycolactone 13.5 h; 100 nM bortezomib 2 h
Description: Pulse‐Chase Analysis of Protein Secretion in HepG2 Cells
The secretion assay was performed using a pulse–chase approach as described previously.20 HepG2 cells were treated with DMSO, 100 nM compound 8, 100 nM Ipom-F or […] mycolactone for 13.5 h before initiating the experiment, whereas pre-treatment with bortezomib 100 nM (Stratech) or 2.5 μg/ml brefeldin A were performed for 2 h and 1 h, respectively. Cells were starved in Met‐ and Cys‐free DMEM (Invitrogen) for 20 min at 37°C. Labeling was initiated by addition of fresh starvation medium containing […] [35S]Met and [35S]Cys protein labeling mix (Perkin Elmer; specific activity >1,000 Ci/mmol) for 15 min. After washing with PBS, cells were incubated in serum‐free DMEM supplemented with excess unlabeled L‐Met and L‐Cys (2 mM final concentration) for 2 h. The compounds were included throughout the starvation, pulse and chase. Secreted proteins in the media were recovered by precipitation with 13% trichloroacetic acid, washed in acetone and dissolved in 2x sample buffer. Cells were solubilized with Triton X‐100 lysis buffer (20 mM Tris, pH 7.5, 150 mM NaCl, 1% TX-100, 1 mM EDTA, 1 mM EGTA) supplemented with protease inhibitor cocktail and phenylmethylsulfonyl fluoride. Equal amounts

HCT116 = assay: cells; type: cell-based; conditions: Homo sapiens, HCT-116; HCT116, 72 h, Alamar Blue, assayed separately; read-out: Cytotoxicity (IC50)
Description: as §1
as §2, with “nm. For HCT116 WT and mutant lines, cells were seeded at 1000 cells/ well in complete McCoys medium. Compounds were diluted from a DMSO stock into culture medium as described above. Cells were treated for 96 h, then viability measured with AlamarBlue, detected using the conditions described but with a BMG Fluostar Optima Microplate Reader. The percentage of viability compared to the negative control (DMSO-treated cells) was determined.” for “nm.”
HCT116 and HEK293T. Viable cells were counted using an automated cell counter (BioRad TC20) before each experiment. […] Emission of each well at 620 nm was detected by a microplate reader (Perkin Elmer EnSpire) at excitation 580 nm. The percentage of viability compared to the negative control (DMSO -treated cells) was determined. […]
Figure S1. […] (C) HCT116 colon carcinoma cells were treated with increasing concentrations of analogues 8, 14, 15, CT8, ipomoeassin F or carrier (0.1% DMSO) and cell viability was assessed at 72 h by the Alamar Blue assay (mean ± S.D., n = 4). […]

HCT-116 cells = assay: Metabolic labelling of nascent proteins in HCT116 cells; type: cell-based, human; conditions: HCT-116, 1 μM, 35S labelling
Description: Metabolic Labelling Assays in HCT116 Cells
HCT116 cells were counted using an automated cell counter (BioRad TC20) immediately prior to each experiment. 3 ml of HCT116 cells at a density of 0.166x10^6 cells/mL were seeded to 6-well plates (0.5x10^6 cells/well) and then incubated at 37 °C and 5% CO 2 for 24 h. The compounds were dissolved in DMSO to make drug stocks (10 mM). The stock solutions were diluted with DMEM high glucose culture medium lacking methionine and cysteine to make a fresh working solution immediately prior to each test. Cells were washed twice and 1ml of fresh DMEM lacking methionine and cysteine was added to each well.
Subsequently, the cells were treated with 250 µl of compound solutions in a total volume of 1 ,250 µl/well.
The plate was then incubated at 37 °C and 5% CO 2 for 30 min before 100 µCi 35S-labelled methionine/cysteine was added (Expre35s35s protein labelling mix). Plates were incubated for a further 30 min, then media collected and cells harvested by scraping after four washes in ice-cold PBS. Total protein was acquired by RIPA extraction from the cell pellet, cytoplasmic fraction was acquired by partial permeabilization of the outer cell membranes with 0.15% Digitonin followed by centrifugation, secreted proteins were acquired by TCA precipitation of the media. […]

**Q.** Which results are given for `C/C=C(\C)C(=O)O[C@@H]1[C@@H](O)[C@@H]2O[C@H]3[C@H](O[C@@H](CCCCC)CCCCCCC(=O)CCC(=O)OC[C@@H](O2)[C@H]1OC(=O)/C=C/c1ccc(OCc2cn(CCOCCOCCOCCNc4ccc([N+](=O)[O-])c5nonc45)nn2)cc1)O[C@H](C)[C@H](OC(C)=O)[C@@H]3O` [compound 11]?
**A.** IC50 (MDA-MB-231): 2.8 nM; IC50 (MCF7): 21.1 nM; IC50 [1]: 2 nM

**Q.** What does the source list for `C/C=C(\C)C(=O)O[C@@H]1[C@@H](O)[C@@H]2O[C@H]3[C@H](O[C@@H](CCCCC)CCCCCCC(=O)CCC(=O)OC[C@@H](O2)[C@H]1OC(=O)/C=C/c1ccc(OCc2cn(-c4cc5ccc(O)cc5oc4=O)nn2)cc1)O[C@H](C)[C@H](OC(C)=O)[C@@H]3O` [compound 10]?
**A.** IC50 (MDA-MB-231): 8.9 nM; IC50 (MCF7): 172 nM; IC50 [1]: 11.3 nM

**Q.** For `C#CCOc1ccc(/C=C/C(=O)O[C@@H]2[C@@H](O)[C@@H]3O[C@H]4[C@H](O[C@@H](CCCCC)CCCCCCC(=O)CCC(=O)OC[C@@H](O3)[C@H]2OC(=O)/C(C)=C/C)O[C@H](C)[C@H](OC(C)=O)[C@@H]4O)cc1` [compound 3], which IC50 (MDA-MB-231) is on record?
**A.** 6.3 nM

**Q.** And the IC50 (MCF7)?
**A.** 22.2 nM

**Q.** And the IC50 [1]?
**A.** 9.6 nM

**Q.** For `CC(C)C[C@H](NC(=O)[C@H](Cc1ccccc1)NC(=O)c1cnccn1)B(O)O` [bortezomib, reference compound], which “secretory proteins in cell media” value (HepG2 cells) is on record?
**A.** had no effect

**Q.** With `CCCCC[C@H]1CCCCCCC(=O)CCC(=O)OC[C@H]2O[C@@H](O[C@H]3[C@H](O1)O[C@H](C)[C@H](OC(C)=O)[C@@H]3O)[C@H](O)[C@@H](OC(=O)C(C)CC)[C@@H]2OC(=O)/C=C/c1ccccc1` (stereo partly drawn) [compound 15] as the molecule, how does the IC50 (HCT116) read?
**A.** 480 nM

**Q.** And the “inhibition of production of secreted proteins compared with ipomoeassin F” value (HCT-116 cells)?
**A.** less potently
